{"source": "patent US8614222B2", "about": "“Methods of preventing and treating low bone mass diseases” (The Trustees of Columbia University in the City of New York, priority 2008, dated 2013)", "type_in_all_cases": "in vivo", "key": {"[1]": {"tested_on": "serum serotonin", "assay": "Serum serotonin levels in WT mice fed LP-533,401 (dose response)", "experimental": "This decrease in serum serotonin levels reached 70% of control values when using 250 mg/kg of the compound while no change in brain serotonin content was observed (FIG. 15). […] Ovariectomized rodents present, as post-menopausal women do (Rodan & Martin, 2000, Science 289:1508-1514), a marked increase in bone resorption not compensated by a similar increase in bone formation.\n(§1) Blood samples were collected from mice and rats through cardiac puncture under isoflurane anesthesia, kept on ice for 5 min, and centrifuged at 13,000 rpm for 10 min at 4° C. Serum samples were stored at −80° C. until hormonal analyses were performed. Serum serotonin levels were quantified by ELISA (Serotonin kit, Fitzgerald) while serotonin levels in brain regions were quantified by HPLC as described previously (Mann et al., 1992, Arch. Gen. Psychiatry 49:442-446). Serum levels of total deoxypyridinoline (DPD) cross-links was measured using the Merta tDPD kit (Quidel corp. Sandiago, Calif.) and Osteocalcin using Rat and Mouse Ocn IRMA kit."}, "[2]": {"tested_on": "naive mice", "assay": "Histomorphometric analysis of vertebrae of naive mice", "details": "naive mice (FIG. 20A: 250 mg/kg/day orally, 6 weeks)", "experimental": "FIG. 20. (A) Histomorphometric analysis of vertebrae of 12 week-old mice that received vehicle or LP-533,401 (250 mg/kg/day, orally) for 6 weeks. (B-E) Gastrointestinal transit rate (B), colon motility (C), efficiency of gastric emptying (D) and blood coagulation rate (E) in 18 week-old ovariectomized (OVX) mice that received orally vehicle or indicated doses of LP-533,401 for 6 weeks.\nBone histomorphometry was performed as previously described (Duey et al., 2000, Cell 100:197-207; Takeda et al., 2002, Cell 111:305-317; Parfitt et al., 1987, J. Bone Miner. Res. 2:595-610). Briefly, lumbar vertebrae were dissected, fixed for 24 hr in 10% formalin, dehydrated in graded ethanol series, and embedded in methyl methacrylate resin according to standard protocols (Parfitt et al., 1987, J. Bone Miner. Res. 2:595-610). Von Kossa/Von Gieson staining was performed using 7 μm sections for bone volume over tissue volume (BV/TV) measurement. Bone formation rate (BFR) was analyzed by the calcein double-labeling method (Ducy et al., 2000, Cell 100:197-207). Calcein (Sigma Chemical Co., St. Louis, Mo.) was dissolved in calcein buffer (0.15 M NaCl, 2% NaHCO3) and injected twice at 0.125 mg/g body weight on day 1 and 4, and then mice were killed on day 6. Unstained 4 μm sections were used for bone formation rate (BFR) measurements. […]"}, "[3]": {"tested_on": "ovariectomized mice", "assay": "Bone histomorphometry in ovariectomized mice, preventive and curative regimen", "experimental": "Six-week-old wild-type virgin female mice were purchased from the Jackson Laboratories and subjected to either bilateral ovariectomy or a sham operation after a few days of acclimatization to the animal facility post-arrival. Ovariectomy was performed under isofluorane anesthesia through dorsal, subrenal incision. In the first experiment, mice were treated from day 1 post-ovariectomy for 4 weeks with LP-533,401 (1, 10, 100 or 250 mg/kg/day) or vehicle. In the second experiment, mice were treated for 4 weeks from 2 to 6-weeks post-ovariectomy with LP-533,401 (250 mg/kg/day) or vehicle. […] LP-533,401 was dissolved in polyethylene glycol:5% dextrose (40:60) and given daily by gavage at the doses indicated. Animals were observed daily for any behavioral abnormalities. Mice were sacrificed at the end of the experimental regimen and processed for the skeletal and physiological analysis.\nBone histomorphometry was performed as previously described (Duey et al., 2000, Cell 100:197-207; Takeda et al., 2002, Cell 111:305-317; Parfitt et al., 1987, J. Bone Miner. Res. 2:595-610). Briefly, lumbar vertebrae were dissected, fixed for 24 hr in 10% formalin, dehydrated in graded ethanol series, and embedded in methyl methacrylate resin according to standard protocols (Parfitt et al., 1987, J. Bone Miner. Res. 2:595-610). Von Kossa/Von Gieson staining was performed using 7 μm sections for bone volume over tissue volume (BV/TV) measurement. Bone formation rate (BFR) was analyzed by the calcein double-labeling method (Ducy et al., 2000, Cell 100:197-207). Calcein (Sigma Chemical Co., St. Louis, Mo.) was dissolved in calcein buffer (0.15 M NaCl, 2% NaHCO3) and injected twice at 0.125 mg/g body weight on day 1 and 4, and then mice were killed on day 6. Unstained 4 μm sections were used for bone formation rate (BFR) measurements. For the analysis of parameters of osteoblasts and osteoclasts, 4 μm sections were stained with toluidine blue and tartrate-resistant acid phosphatase (TRAP), respectively (2). Histomorphometric analyses were performed using the Osteomeasure Analysis System (Osteometrics, Atlanta, Ga.).\nas §1"}, "[4]": {"details": "OVX mice, 250 mg/kg/day for 4 weeks from week 2 post-ovariectomy"}, "[5]": {"details": "OVX mice, day 1 to 28 post-ovariectomy"}}, "data": [{"smiles": "Nc1nc(OC(c2ccc(-c3cccc(F)c3)cc2)C(F)(F)F)cc(-c2ccc(C[C@H](N)C(=O)O)cc2)n1", "note": "(stereo partly drawn) [LP-533401, (2S)-2-amino-3-(4-(2-amino-6-(2,2,2-trifluoro-1-(3′-fluorobiphenyl-4-yl)ethoxy)pyrimidin-4-yl)phenyl)propanoic acid]", "values": [{"measurement": "serum serotonin levels, dose response", "setting": "[1]; WT mice fed with increasing amounts", "result": "dose-dependent decrease"}, {"measurement": "decrease in serum serotonin levels", "setting": "[1]; WT mice, 250 mg/kg LP-533,401", "result": "70 % of control values"}, {"measurement": "increase in bone mass", "setting": "[2]", "result": "also observed in naive mice"}, {"measurement": "bone mass versus sham-operated mice", "setting": "[3]; OVX mice, 25 mg/kg/day for 6 weeks from week 6 post-ovariectomy", "result": "similar"}, {"measurement": "bone mass", "setting": "[3]; [4]", "result": "normalized"}, {"measurement": "bone resorption parameters", "setting": "[3]; [4]", "result": "increased"}, {"measurement": "bone mass versus sham-operated mice", "setting": "[3]; OVX mice, 100 or 250 mg/kg/day for 6 weeks from week 6 post-ovariectomy", "result": "significantly higher"}, {"measurement": "bone mass versus vehicle-treated ovariectomized mice", "setting": "[3]; OVX mice, 250, 100 or 10 mg/kg once daily, day 1 to 28 post-ovariectomy", "result": "higher"}, {"measurement": "Cyclin D1 expression in the bones", "setting": "[3]; [5]", "result": "increase"}, {"measurement": "bone formation rate", "setting": "[3]; [5]", "result": "major increase"}, {"measurement": "osteoblast numbers", "setting": "[3]; [5]", "result": "major increase"}, {"measurement": "osteocalcin serum levels", "setting": "[3]; [5]", "result": "major increase"}]}]}
